Assay results taken from patent US4340602A, “Compositions inhibiting estrogen sulfotransferase activity” (Wayne State University, priority 1978, dated 1982).

Biological target: T1, Bovine Adrenal Estrogen Sulfotransferase (Bos taurus, UniProt P19217)
T1 construct: The enzyme was isolated from the bovine adrenals; from tissue; host or cells: bovine adrenals; purified by ammonium sulfate fractionation and chromatography on DEAE-cellulose or DEAE-Sephadex A-50
T1 sequence (P19217 1-295): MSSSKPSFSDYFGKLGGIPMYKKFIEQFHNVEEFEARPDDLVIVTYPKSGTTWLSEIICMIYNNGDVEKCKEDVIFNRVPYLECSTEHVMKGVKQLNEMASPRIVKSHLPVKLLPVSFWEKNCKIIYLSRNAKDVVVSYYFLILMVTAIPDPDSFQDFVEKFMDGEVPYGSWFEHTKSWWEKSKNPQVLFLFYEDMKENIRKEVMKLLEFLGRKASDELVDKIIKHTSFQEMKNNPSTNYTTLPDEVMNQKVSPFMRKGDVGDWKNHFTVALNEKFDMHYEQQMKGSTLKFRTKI
Assay: Inhibition of bovine adrenal estrogen sulfotransferase (estrone sulfurylation)
Type: biochemical
Protocol: Materials are evaluated for activity as estrogen sulfotransferase inhibitors by the method of Rozhin et al, Journal of Biological Chemistry, 252:7214-7220 (October 25, 1977), herein incorporated by reference.
Isolation of Estrogen Sulfotransferase (EC 2.8.2.4). The enzyme was isolated from the bovine adrenals and purified by ammonium sulfate fractionation and column chromatography on DEAE-cellulose or DEAE-SephadexA-50 [Rozhin et al (1974)].
Standard Enzyme Assay. The incubation mixtures contained the following in a total volume of 0.2 ml: 0.4 mM P-Ado-PS; 2 to 23 μM estrone (3-hydroxy-1,3,5(10)-estratriene-17-one), 5×10^5 dpm of [6,7-^3 H]estrone; 5 mM magnesium acetate; 0.19 M Tris/HCl buffer (pH 8.1 at 37°); 5 ug of the enzyme; and 25 μM dithiothreitol. After a 10-min incubation (in the presence of a constant amount of inhibitor and a variable amount of estrone), the boiled mixtures were supplemented with 5 μg of aqueous estrone sulfate. The remaining [^3 H]estrone was extracted three times with 0.3 ml of ethyl ether. The residual ether was removed and the volume adjusted to 0.5 ml with methanol. A sample (25 μl) was applied, together with 10 μg of methanolic estrone sulfate marker, to type SG chromatography media (Gelman Instrument Co., Ann Arbor, Mich.), and developed with chloroform/acetone/acetic acid (110:35:6). After drying the sheet, samples were visualized by spraying with methylene blue (25 mg in 100 ml of 0.05 N H2 SO4), punched out with a cork borer, and counted in 10 ml of dioxane counting liquid. A blank employing a boiled enzyme sample was incubated and the recorded counts were substracted from each determination. The total corrected counts, representing steroid sulfate ester, were converted to nanomoles utilizing the specific activity of [^3 H]estrone. An enzyme unit was defined as that quantity of enzyme which synthesized 1 nmol of estrone sulfate in 1 min under chosen conditions. […] When nonsubstrate steroids were used as the inhibitors, the procedure for the enzyme assay was as described earlier [Rozhin et al (1974)], utilizing 5 μg of enzyme, P-Ado-[^35 S]PS, and unlabeled estrone.
Data Processing. The initial velocity analysis was carried out keeping the concentration of P-Ado-PS at saturation level, varying the estrone concentration and keeping the concentration of the inhibitor at a fixed level. Preliminary plots of the data were made in the double reciprocal form (l/v versus l/[S]), and in the form of replots of slopes (and intercepts) versus inhibitor concentration. On the basis of these plots, the proper inhibition pattern was chosen for each experiment and the data points were fitted to the appropriate equation.
Linear competitive inhibition: [formula]
Hyperbolic competitive inhibition: [formula]
Slope-parabolic non-competitive inhibition: [formula]
All calculations were performed using Cleland's Fortran programs (Adv. Enzymol., 29:1-32). The programs gave the values of Km, Vmax, and inhibition constants.
Fractional Inhibition. From kinetic experiments, Ki was calculated as described above under "Data Processing" after making replots of slopes (and/or intercepts) versus inhibitor concentration. […] Substituting v and vi from the corresponding rate equations in the absence of (v=(Vmax [S])/(Km +[S])) and presence of a (competitive) inhibition (Equation 1), the following relationship for FI is obtained: [formula] After substituting [S], Km, and [I] (see above), the equation for the fractional (competitive) inhibition simplifies to: [formula] and the mathematical relationship between FI and Ki of competitive inhibitors is represented by the continuous curve in FIG. 2 in Rozhin et al., J. Biol. Chem., 252, 7214-7220, 1977. The dashed line represents the relationship between FI and the Ki of pure noncompetitive inhibition derived mathematically in an analogous manner and expressed as [formula] Since [I]=22.2 μM, [formula]

## C[C@]12CC[C@@H]3c4ccc(O)cc4CC[C@H]3[C@@H]1CC[C@@H]2O [1,3,5(10)Estratriene-3,17β-diol]
Inhibitors 3 to 6, 12 and 16, from kinetic experiments, read-out: Ki (Table I), determined experimentally
  Ki: 6.1 µM
pH 8.1, read-out: Fractional Inhibition (Table I)
  inhibition at 22.2 µM: 68%
